The record followed here is patent publication US20260022143A1, “Cyclic Peptide Inhibitors of IL-23” (JANSSEN PHARMACEUTICA NV, priority 2022, published 2026).

Molecules are shown by their SMILES. Starred links: 1 amine or outer side, 2 acyl side, 3 side chain; linkers in the order of their positions; H or OH if unused. Positions of bridges follow the written chain, without caps; N, C: chain ends. Non-standard residues stand in square brackets, D forms with d. Residues, ends and D or L forms follow the SMILES beside them. *: point of attachment. X36 = C[N+]1(CCCc2cn(-c3ccc(C[C@H](N[*:1])C(=O)[*:2])cc3)nn2)CCOCC1; X33 = C[N+](C)(C)CCCCc1cn(-c2ccc(C[C@H](N[*:1])C(=O)[*:2])cc2)nn1; Me3N+(CH2)2O(CH2)2O(CH2)2CO = C[N+](C)(C)CCOCCOCCC(=O)*; X34 = C[N+](C)(C)CCOCCOCCC(=O)N(CC[N+](C)(C)C)CC*; CH2CH2OCH2CH2OCH2CH2NMe3+ = C[N+](C)(C)CCOCCOCC*; Trp(7-Me) = Cc1cccc2c(C[C@H](N)C(=O)O)c[nH]c12; dLys(Me3) = C[N+](C)(C)CCCC[C@@H](N)C(=O)O; X9 = COCCOCCOCC[N+](C)(C)CCc1cn(CC*)nn1; X89 = COCCOCCOCC[N+](C)(CCOCCOCCOC)CC*; 2Nal = N[C@@H](Cc1ccc2ccccc2c1)C(=O)O; Propanoyl(3,3,3-F3) = O=C(CC(F)(F)F)*; AEF = NCCOc1ccc(C[C@H](N)C(=O)O)cc1; dNMeY = CN[C@H](Cc1ccc(O)cc1)C(=O)O; 3Pal = N[C@@H](Cc1cccnc1)C(=O)O; d3Pal = N[C@H](Cc1cccnc1)C(=O)O; Lys(Me) = CNCCCC[C@H](N)C(=O)O; Pen = CC(C)(S)[C@H](N)C(=O)O; αMeK = C[C@](N)(CCCCN)C(=O)O; Thp = NC1(C(=O)O)CCOCC1; X17 = C[N+]1(CC*)CCOCC1; Sar = CNCC(=O)O

A short description of this data set: Exposed Polar Surface Area (EPSA). As to conditions: SFC on Chirex 3014 column; sample 1 mM DMSO stock; read-out: EPSA. In kind it is physicochemical. The essentials: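 Compounds, as 1 mM DMSO stock, were injected in duplicate onto an SFC Chirex 3014 column at 35 °C and eluted with a CO2/methanol (20 mM ammonium formate) gradient. EPSA values in Å^2 were derived from retention times using a linear fit to eight calibration standards, reinjected every 20 compounds.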
With `CC(=O)NCCCC[C@@H]1NC(=O)[C@H](Cc2c[nH]c3c(C)cccc23)NC(=O)[C@H]([C@@H](C)O)NC(=O)[C@H](CC(N)=O)NC(=O)[C@@H](NC(C)=O)C(C)(C)SSC(C)(C)[C@@H](C(=O)N[C@@H](Cc2ccc(OCCN)cc2)C(=O)N[C@@H](Cc2ccc3ccccc3c2)C(=O)N[C@@](C)(CCCCN)C(=O)N[C@@H](CCCCNC(C)=O)C(=O)N[C@@H](CC(N)=O)C(=O)N[C@H](Cc2ccccc2)C(=O)N(C)[C@H](Cc2ccc(O)cc2)C(N)=O)NC1=O` [compound 20, MeCO-Pen(3)-N-T-7MeW-K(Ac)-Pen(3)-AEF-2Nal-aMeK-K(Ac)-N-f-NMeDTyr-CONH2] (Ac-[Pen]NT[Trp(7-Me)]K(Ac)[Pen][AEF][2Nal][αMeK]K(Ac)N[dF][dNMeY]-NH2; disulfide 1-6 (inferred)), the EPSA amounted to 168 A^2.
As to `CC(=O)N(C)CCCC[C@@H]1NC(=O)[C@H](Cc2c[nH]c3c(C)cccc23)NC(=O)[C@H]([C@@H](C)O)NC(=O)[C@H](CC(=O)N(C)C)NC(=O)[C@@H](NC(=O)CCOCCOCC[N+](C)(C)C)C(C)(C)SSC(C)(C)[C@@H](C(=O)N[C@@H](Cc2ccc(OCC3CCC([N+](C)(C)C)CC3)cc2)C(=O)N[C@@H](Cc2ccc3ccccc3c2)C(=O)NC2(C(=O)N[C@@H](CCCCN(C)C(C)=O)C(=O)N[C@@H](CC(N)=O)C(=O)N[C@@H](Cc3cccnc3)C(=O)N(C)CC(=O)N(C)C)CCOCC2)NC1=O` (single isomer, unassigned) [compound 210, cPEG3aCO-Pen(3)-N(N(Me)2)-T-7MeW-K(NMeAc)-Pen(3)-ACHMF-2Nal-THP-K(NMeAc)-N-3Pya-Sar-CON(Me)2], the EPSA was 145 A^2.
`CC(=O)NCCCC[C@@H]1NC(=O)[C@H](Cc2c[nH]c3c(C)cccc23)NC(=O)[C@H]([C@@H](C)O)NC(=O)[C@H](CC(N)=O)NC(=O)[C@@H](NC(=O)[C@@H](CCCC[N+](C)(C)C)NC(=O)CC(F)(F)F)C(C)(C)SSC(C)(C)[C@@H](C(=O)N[C@@H](Cc2ccc(OCCN)cc2)C(=O)N[C@@H](Cc2ccc3ccccc3c2)C(=O)NC2(C(=O)N[C@@H](CCCCNC(C)=O)C(=O)N[C@@H](CC(N)=O)C(=O)N[C@@H](Cc3cccnc3)C(=O)N(C)CC(N)=O)CCOCC2)NC1=O` [compound 144] ({Propanoyl(3,3,3-F3)}-[dLys(Me3)][Pen]NT[Trp(7-Me)]K(Ac)[Pen][AEF][2Nal][Thp]K(Ac)N[3Pal][Sar]-NH2; disulfide 2-7): the EPSA was 161 A^2.
Next, `CC(=O)NCCCC[C@@H]1NC(=O)[C@H](Cc2c[nH]c3ccccc23)NC(=O)[C@H]([C@@H](C)O)NC(=O)[C@H](CC(N)=O)NC(=O)[C@@H](NC(=O)[C@@H](CCCNC(=N)N)NC(C)=O)C(C)(C)SSC(C)(C)[C@@H](C(=O)N[C@@H](Cc2ccc(OCC[N+]3(C)CCOCC3)cc2)C(=O)N[C@@H](Cc2ccc3ccccc3c2)C(=O)NC2(C(=O)N[C@@H](CCC(=O)O)C(=O)N[C@@H](CC(N)=O)C(=O)N[C@@H](Cc3cccnc3)C(=O)N(C)CC(N)=O)CCOCC2)NC1=O` [compound 429] (Ac-[dR][Pen]NTWK(Ac)[Pen]Y(X17)[2Nal][Thp]EN[3Pal][Sar]-NH2; disulfide 2-7): 192 A^2; `CC(=O)NCCCC[C@@H]1NC(=O)[C@H](Cc2c[nH]c3c(C)cccc23)NC(=O)[C@H]([C@@H](C)O)NC(=O)[C@H](CC(N)=O)NC(=O)[C@@H](NC(C)=O)C(C)(C)SSC(C)(C)[C@@H](C(=O)N[C@@H](Cc2ccc(-n3cc(CCCC[N+](C)(C)C)nn3)cc2)C(=O)N[C@@H](Cc2ccc3ccccc3c2)C(=O)NC2(C(=O)N[C@@H](CCC(=O)O)C(=O)N[C@@H](CC(N)=O)C(=O)N[C@@H](Cc3cccnc3)C(=O)N(C)CC(N)=O)CCOCC2)NC1=O` [compound 442] (Ac-[Pen]NT[Trp(7-Me)]K(Ac)[Pen][X33][2Nal][Thp]EN[3Pal][Sar]-NH2; disulfide 1-6 (inferred)): 169 A^2.
The figure for `CC(=O)NCCCC[C@@H]1NC(=O)[C@H](Cc2c[nH]c3c(C)cccc23)NC(=O)[C@H]([C@@H](C)O)NC(=O)[C@H](CC(N)=O)NC(=O)[C@@H](NC(C)=O)C(C)(C)SSC(C)(C)[C@@H](C(=O)N[C@@H](Cc2ccc(OCCN)cc2)C(=O)N[C@@H](Cc2ccc3ccccc3c2)C(=O)N[C@@](C)(CCCCN)C(=O)N[C@@H](CCCCNC(C)=O)C(=O)N[C@@H](CC(N)=O)C(=O)N[C@H](Cc2cccnc2)C(=O)N(C)[C@H](Cc2ccc(O)cc2)C(N)=O)NC1=O` [compound 32, MeCO-Pen(3)-N-T-7MeW-K(Ac)-Pen(3)-AEF-2Nal-aMeK-K(ac)-N-3pya-NMeDTyr-CONH2] (Ac-[Pen]NT[Trp(7-Me)]K(Ac)[Pen][AEF][2Nal][αMeK]K(Ac)N[d3Pal][dNMeY]-NH2; disulfide 1-6) is 166 A^2.
Next, `CC(=O)NCCCC[C@@H]1NC(=O)[C@H](Cc2c[nH]c3c(C)cccc23)NC(=O)[C@H]([C@@H](C)O)NC(=O)[C@H](CC(N)=O)NC(=O)[C@@H](NC(=O)CCOCCOCC[N+](C)(C)C)C(C)(C)SSC(C)(C)[C@@H](C(=O)N[C@@H](Cc2ccc(-n3cc(CCC[N+]4(C)CCOCC4)nn3)cc2)C(=O)N[C@@H](Cc2ccc3ccccc3c2)C(=O)NC2(C(=O)N[C@@H](CCCCNC(C)=O)C(=O)N[C@@H](CC(N)=O)C(=O)N[C@@H](Cc3cccnc3)C(=O)N(C)CC(N)=O)CCOCC2)NC1=O` [compound 439, cPEG3aCO-Pen(3)-N-T-7MeW-K(Ac)-Pen(3)-F(4TzlMMo3)-2Nal-THP-K(Ac)-N-3Pya-Sar-CONH2] ({Me3N+(CH2)2O(CH2)2O(CH2)2CO}-[Pen]NT[Trp(7-Me)]K(Ac)[Pen][X36][2Nal][Thp]K(Ac)N[3Pal][Sar]-NH2; disulfide 1-6): 167 A^2; `COCCOCCOCC[N+](C)(CCOCCOCCOC)CCOc1ccc(C[C@H](NC(=O)[C@H]2NC(=O)[C@H](CCCCN(C)C(C)=O)NC(=O)[C@H](Cc3c[nH]c4c(C)cccc34)NC(=O)[C@H]([C@@H](C)O)NC(=O)[C@H](CC(=O)N(C)C)NC(=O)[C@@H](NC(=O)CCOCCOCC[N+](C)(C)C)C(C)(C)SSC2(C)C)C(=O)N[C@@H](Cc2ccc3ccccc3c2)C(=O)NC2(C(=O)N[C@@H](CCCCN(C)C(C)=O)C(=O)N[C@@H](CC(N)=O)C(=O)N[C@@H](Cc3cccnc3)C(=O)N(C)CC(=O)N(C)C)CCOCC2)cc1` [compound 241, cPEG3aCO-Pen(3)-N(N(Me)2)-T-7MeW-K(NMeAc)-Pen(3)-AEF(NMeBismPEG3)-2Nal-THP-K(NMeAc)-N-3Pya-Sar-CON(Me)2] ({Me3N+(CH2)2O(CH2)2O(CH2)2CO}-[Pen]D(NMe2)T[Trp(7-Me)][Lys(Me)](Ac)[Pen]Y(X89)[2Nal][Thp][Lys(Me)](Ac)N[3Pal][Sar]-NMe2; disulfide 1-6): 135 A^2; `CC(=O)N[C@@H]1C(=O)N[C@@H](CC(=O)N(C)C)C(=O)N[C@@H]([C@@H](C)O)C(=O)N[C@@H](Cc2c[nH]c3c(C)cccc23)C(=O)N[C@@H](CCCCN(C)C(C)=O)C(=O)N[C@H](C(=O)N[C@@H](Cc2ccc(OCCN)cc2)C(=O)N[C@@H](Cc2ccc3ccccc3c2)C(=O)NC2(C(=O)N[C@@H](CCCCN(C)C(C)=O)C(=O)N[C@@H](CC(N)=O)C(=O)N[C@@H](Cc3cccnc3)C(=O)N(C)CC(N)=O)CCOCC2)C(C)(C)SSC1(C)C` [compound 182, MeCO-Pen(3)-N(N(Me)2)-T-7MeW-K(NMeAc)-Pen(3)-AEF-2Nal-THP-K(NMeAc)-N-3Pya-Sar-CONH2] (Ac-[Pen]D(NMe2)T[Trp(7-Me)][Lys(Me)](Ac)[Pen][AEF][2Nal][Thp][Lys(Me)](Ac)N[3Pal][Sar]-NH2; disulfide 1-6): 153 A^2.
As for `COCCOCCOCC[N+](C)(C)CCc1cn(CCOc2ccc(C[C@H](NC(=O)[C@H]3NC(=O)[C@H](CCCCN(C)C(C)=O)NC(=O)[C@H](Cc4c[nH]c5c(C)cccc45)NC(=O)[C@H]([C@@H](C)O)NC(=O)[C@H](CC(=O)N(C)C)NC(=O)[C@@H](NC(=O)CCOCCOCC[N+](C)(C)C)C(C)(C)SSC3(C)C)C(=O)N[C@@H](Cc3ccc4ccccc4c3)C(=O)NC3(C(=O)N[C@@H](CCCCN(C)C(C)=O)C(=O)N[C@@H](CC(N)=O)C(=O)N[C@@H](Cc4cccnc4)C(=O)N(C)CC(=O)N(C)C)CCOCC3)cc2)nn1` [compound 283, cPEG3aCO-Pen(3)-N(N(Me)2)-T-7MeW-K(NMeAc)-Pen(3)-Y(OTzlChmPEG3)-2Nal-THP-K(NMeAc)-N-3Pya-Sar-CON(Me)2] ({Me3N+(CH2)2O(CH2)2O(CH2)2CO}-[Pen]D(NMe2)T[Trp(7-Me)][Lys(Me)](Ac)[Pen]Y(X9)[2Nal][Thp][Lys(Me)](Ac)N[3Pal][Sar]-NMe2; disulfide 1-6), the EPSA was 146 A^2.
The figure for `CC(=O)NCCCC[C@@H]1NC(=O)[C@H](Cc2c[nH]c3c(C)cccc23)NC(=O)[C@H]([C@@H](C)O)NC(=O)[C@H](CC(N)=O)NC(=O)[C@@H](NC(=O)CCOCCOCC[N+](C)(C)C)C(C)(C)SSC(C)(C)[C@@H](C(=O)N[C@@H](Cc2ccc(OCCOCCOCC[N+](C)(C)C)cc2)C(=O)N[C@@H](Cc2ccc3ccccc3c2)C(=O)NC2(C(=O)N[C@@H](CCCCNC(C)=O)C(=O)N[C@@H](CC(N)=O)C(=O)N[C@@H](Cc3cccnc3)C(=O)N(C)CC(N)=O)CCOCC2)NC1=O` [compound 195, cPEG3aCO-Pen(3)-N-T-7MeW-K(Ac)-Pen(3)-APEG3F-2Nal-THP-K(Ac)-N-3Pya-Sar-CONH2] ({Me3N+(CH2)2O(CH2)2O(CH2)2CO}-[Pen]NT[Trp(7-Me)]K(Ac)[Pen]Y(CH2CH2OCH2CH2OCH2CH2NMe3+)[2Nal][Thp]K(Ac)N[3Pal][Sar]-NH2; disulfide 1-6) is 147 A^2; for `CC(=O)N(C)CCCC[C@@H]1NC(=O)[C@H](Cc2c[nH]c3c(C)cccc23)NC(=O)[C@H]([C@@H](C)O)NC(=O)[C@H](CC(=O)N(C)C)NC(=O)[C@@H](NC(=O)CCOCCOCC[N+](C)(C)C)C(C)(C)SSC(C)(C)[C@@H](C(=O)N[C@@H](Cc2ccc(OCCN(CC[N+](C)(C)C)C(=O)CCOCCOCC[N+](C)(C)C)cc2)C(=O)N[C@@H](Cc2ccc3ccccc3c2)C(=O)NC2(C(=O)N[C@@H](CCCCN(C)C(C)=O)C(=O)N[C@@H](CC(N)=O)C(=O)N[C@@H](Cc3cccnc3)C(=O)N(C)CC(=O)N(C)C)CCOCC2)NC1=O` [compound 208, cPEG3aCO-Pen(3)-N(N(Me)2)-T-7MeW-K(NMeAc)-Pen(3)-AEF((Ch)cPEG3a)-2Nal-THP-K(NMeAc)-N-3Pya-Sar-CON(Me)2] ({Me3N+(CH2)2O(CH2)2O(CH2)2CO}-[Pen]D(NMe2)T[Trp(7-Me)][Lys(Me)](Ac)[Pen]Y(X34)[2Nal][Thp][Lys(Me)](Ac)N[3Pal][Sar]-NMe2; disulfide 1-6) it is 141 A^2.
